One series can be described thus: PAMPA. Format: in vitro ADME. Here is the method: In order to test the physicochemical properties of the adenosine derivative of the inventive concept, experiments were conducted on the compound of the formula A in vitro, and the results are shown in Table 3. Plasma stability and protein binding were measured using rat and human plasma.
A general note: In PAMPA a lipid-coated filter parts donor from acceptor wells.

Series [1] in a line: Pharmacokinetic test in mice (Experimental Example 5). The settings on record: male, ICR, mouse, plasma, oral administration of 10 mg/kg, read-out: half-life T1/2 (converted). Format: in vivo. Here is the method: In order to test the ADME properties of the adenosine derivative of the inventive concept after oral administration, pharmacokinetic properties of the compound of the formula A were measured in vivo. […] Intravenous administration was performed through a tube inserted into the femoral vein, and oral administration was performed using oral gavage. [Table 4] [table] After the administration, the experimental animals' blood was taken at predetermined time intervals for 24 hours. Then, the blood was centrifuged to separate plasma. The plasma samples were pretreated with a suitable organic solvent, and then the concentration of the plasma samples was analyzed by LC-MS/MS. The blood concentration-time data of the compound of the formula A was analyzed using WinNonlin (Pharsight, USA), and graphs of the blood concentration-time data are shown in FIGS. 5 through 9. The results of noncompartmental pharmacokinetic parameters calculated from the blood concentration-time data are shown in Tables 5 through 9. In FIGS. 5 through 9, I.V. represents an intravenous administration group, P.O. represents an oral administration group, and the definition of each parameter in Tables 5 through 9 is shown in Table 10. FIG. 7 and Table 7 show a graph and parameter values obtained from the blood concentration-time data of Experimental Example 5. […] Thus, the adenosine derivative is suitable for oral administration.

In another series the test system is ICR mice. Nature of the series: Toxicity after intraperitoneal injection, mice. Format: in vivo. As to conditions: intraperitoneal 20, 10 and 1 mg/kg.
The subject of another series is BDL mouse model. Nature of the series: Efficacy in bile duct ligation (BDL) mouse model of cholangitis and liver disease. It is filed as in vivo, C57BL/6 mice. As to conditions: for Hyaluronic acid values reduced: serum ELISA, compared to BDL control group (G2). Here is the method: After 23 C57BL/6 mice were prepared and subjected to quarantine and acclimation, a bile duct ligation (BDL) surgery and a sham surgery were performed by dividing the animals into groups.
The BDL rodent model is one of the most commonly used methods to induce obstructive cholestatic injury (Tag, C. G et al., Bile Duct Ligation in Mice: Induction of Inflammatory Liver Injury and Fibrosis by Obstructive Cholestasis, J. Vis. Exp. (96), e52438, doi: 10.3791/52438 (2015)). The BDL model induces liver fibrosis and inflammation by causing obstructive cholestasis, and since such symptoms are generally observed in patients with PBC after stage II, the corresponding model may adequately reflect an important aspect of PBC pathology. The advantages of the BDL model are technical validity, reproducibility, and the short time it takes to reach the pathogenomonic status of human portal hypertension.
The surgery day was set to day 0, and the test material was orally administered once a day for 2 weeks from day 1 to day 14. The dose was 10 mL/kg based on the body weight measured before administration. As a test material, a compound of formula A mixed with 0.5% methylcellulose (MC), which is a vehicle, was used, and only the vehicle was used in the control.
The treatment contents of each group are summarized as in the following Table 1.
Blood was collected through the abdominal vein under respiratory anesthesia on day 14, and serum was isolated. After blood collection, liver tissue was collected and weighed, half of the left lateral lobe from the tissue was placed in a tube and immersed in liquid nitrogen, and the other half was fixed in neutral formalin. • Blood biochemical analysis: aspartate aminotransferase (AST), alanine aminotransferase (ALT), alkaline phosphatase (ALP), γ-glutamyl transpeptidase (GGT) and total bilirubin (T-BIL) were measured using a serum biochemical analyzer (Accute, Toshiba). In addition, after blood collection, the body weight was measured by collecting liver tissue. • mRNA expression: RNA was extracted using a portion of the left lateral lobe removed from the liver tissue, cDNA was synthesized using an RNase inhibitor (DR22-R10k, Solgent, Korea) and DiaStar ™ RT Kit, and qRT-PCR was performed using Power SYBR Green PCR Master Mix (Applied Biosystems by Thermo Fisher Scientific, USA).
The following Table 2 lists sequences of primers of mouse Gapdh, Acta2(actin alpha 2 chain), Col1a1(proalpha1(I) chain) and tissue inhibitor of metalloproteinases-1 (Timp1) used for qRT-PCR.
• Analysis of cytokine levels: TNF-α, IL-1β and hyaluronic acid levels in serum were measured using an ELISA kit. • Analysis of hydroxyproline: a portion of the left lateral lobe of liver tissue was extracted, and the hydroxyproline value of liver lysate was measured by a microplate reader (SpectraMax ABS Plus, Molecular Devices) using a hydroxyproline assay kit (Abcam).
The experimental results are shown as mean ± SD, and the test material-administered group was compared with the vehicle control (BDL, G2). Statistical analysis was performed using one-way ANOVA followed by Fisher's least significant difference test using GraphPad Prism (version 5.01) and SPSS (version 24) software. P < 0.05 was considered statistically significant.
A general note: An ELISA detects its analyte on a solid surface through an enzyme-linked reagent.

Series [2] is described as follows: Pharmacokinetic test in dogs (Experimental Example 6). It is filed as in vivo. As to conditions: dog, plasma, maximum (Experimental Example 6), read-out: half-life T1/2. As to the method: In order to test the ADME properties of the adenosine derivative of the inventive concept after oral administration, pharmacokinetic properties of the compound of the formula A were measured in vivo.
Intravenous administration was performed through a tube inserted into the femoral vein, and oral administration was performed using oral gavage.
After the administration, the experimental animals' blood was taken at predetermined time intervals for 24 hours. Then, the blood was centrifuged to separate plasma. The plasma samples were pretreated with a suitable organic solvent, and then the concentration of the plasma samples was analyzed by LC-MS/MS. The blood concentration-time data of the compound of the formula A was analyzed using WinNonlin (Pharsight, USA), and graphs of the blood concentration-time data are shown in FIGS. 5 through 9. The results of noncompartmental pharmacokinetic parameters calculated from the blood concentration-time data are shown in Tables 5 through 9. In FIGS. 5 through 9, I.V. represents an intravenous administration group, P.O. represents an oral administration group, and the definition of each parameter in Tables 5 through 9 is shown in Table 10.
FIG. 8 and Table 8 show a graph and parameter values obtained from the blood concentration-time data of Experimental Example 6 (6-1, 6-2 and 6-3). […]

[3] abbreviates: 10 mg/kg oral once a day (G3), serum day 14, compared with BDL control group (G2).

The source of these data is patent EP4186514A1, “PHARMACEUTICAL COMPOSITION FOR PREVENTING OR TREATING CHOLANGITIS OR LIVER DISEASE CAUSED BY CHOLANGITIS COMPRISING ADENOSINE DERIVATIVE” (Future Medicine Co., Ltd., priority 2021, dated 2023).

Where only a bound is given, the exact number is not on record here.

Experimental for ICR mice: The Adenosine Derivative of the present invention were assayed for cytotoxicity in animals.

Turning to `O[C@@H]1[C@H](O)CS[C@H]1n1cnc2c(NCc3cccc(Cl)c3)nc(Cl)nc21` [Example 2, (2R,3R,4S)-2-(2-chloro-6-(3-chlorobenzylamino)-9H-purin-9-yl)tetrahydrothiophen-3,4-diol], the PAMPA in the series “PAMPA” is on record as -4.49. The half-life was ~3.61 h in series [1] and ≥ 5.53 h in series [2]. In addition, the “weight gain or feed intake versus control group” value in the series on ICR mice was “No difference”. The death entry in the series with ICR mice (observation for 24 hrs) is given as “No death was observed”. For the same compound, in the series with BDL mouse model (10 mg/kg (G3), liver lysate), the “content of liver hydroxyproline decreased” value came to 39%. In addition, the entries for the “Hyaluronic acid values reduced” value in the series on BDL mouse model (10 mg/kg (G3)) and in the series on BDL mouse model (30 mg/kg (G4)) were 51% and 47%, respectively. Further, the AAR decreased with BDL mouse model (setting [3]) was 21%. The same compound registered an ALT decreased with BDL mouse model (setting [3]) of 37%. Also, the AST decreased in the series with BDL mouse model (setting [3]) amounted to 48%; in the series on BDL mouse model (30 mg/kg oral once a day (G4), serum day 14, compared with BDL control group (G2)) it was 38%. Moreover, in the series on BDL mouse model (liver tissue, qRT-PCR, BDL groups G3 (10 mg/kg) and G4 (30 mg/kg)), the “Acta2 mRNA levels” value is given as “decreased”.
